Measured values from ChEMBL document CHEMBL5154738, “Design, synthesis and structural-activity relationship studies of phanginin A derivatives for regulating SIK1-cAMP/CREB signaling to suppress hepatic gluconeogenesis” (Eur J Med Chem, 2022).
Calls of active or inactive are those of the source. No cut-off for these calls is given here.

Key:
[1] = Inhibition of gluconeogenesis in C57BL/6J mouse primary hepatocytes assessed as inhibition of glucagon-stimulated glucose production at 5 uM preincubated for 1.5 hrs followed by lactate and pyruvate addition and later stimulated with glucagon for 4 hrs; type: functional; details: Hepatocyte, time 5.5 hrs
[2] = Inhibition of gluconeogenesis in C57BL/6J mouse primary hepatocytes assessed as inhibition of glucagon-stimulated glucose production at 2.5 uM preincubated for 1.5 hrs followed by lactate and pyruvate addition and later stimulated with glucagon for 4 hrs; type: functional; details: Hepatocyte, time 5.5 hrs
[3] = Cytotoxicity against C57BL/6J mouse primary hepatocytes assessed as cell viability at 20 uM incubated for 24 hrs by MTT assay relative to control; type: toxicity, cell-based, Hepatocyte; details: read-out: Activity
Mus musculus [4] = assay: Anti-hyperglycemic activity in ob/ob mouse assessed as reduction in fasting blood glucose level at 100 mg/kg, po administered once daily and measured after 21 days relative to control; type: functional; details: 504 h, time 21 day
Hepatocyte [5] = assay: Inhibition of gluconeogenesis in C57BL/6J mouse primary hepatocytes assessed as inhibition of glucagon-stimulated glucose production preincubated for 1.5 hrs followed by lactate and pyruvate addition and later stimulated with glucagon for 4 hrs; type: functional, cell-based; details: dose 2.5-10 µM, time 5.5 hrs, DDE = dose-dependent effect
[6] = Inhibition of gluconeogenesis in C57BL/6J mouse primary hepatocytes assessed as inhibition of glucagon-stimulated glucose production at 10 uM preincubated for 1.5 hrs followed by lactate and pyruvate addition and later stimulated with glucagon for 4 hrs; type: functional; details: Hepatocyte, time 5.5 hrs
[7] = Cytotoxicity against C57BL/6J mouse primary hepatocytes assessed as cell viability at 10 uM incubated for 24 hrs by MTT assay relative to control; type: toxicity, cell-based, Hepatocyte; details: read-out: Activity
[8] = Cytotoxicity against C57BL/6J mouse primary hepatocytes assessed as cell viability at 50 uM incubated for 24 hrs by MTT assay relative to control; type: toxicity, cell-based, Hepatocyte; details: read-out: Activity
[9] = Cytotoxicity against C57BL/6J mouse primary hepatocytes assessed as cell viability at 100 uM incubated for 24 hrs by MTT assay relative to control; type: toxicity, cell-based, Hepatocyte; details: read-out: Activity
[10] = Cytotoxicity against C57BL/6J mouse primary hepatocytes assessed as cell viability at 200 uM incubated for 24 hrs by MTT assay relative to control; type: toxicity, cell-based, Hepatocyte; details: read-out: Activity
[11] = target: Serine/threonine-protein kinase SIK1 (Mus musculus) (UniProt Q60670); assay: Activation of SIK1 in C57BL/6J mouse primary hepatocytes assessed as increase in SIK1 phosphorylation at Thr182 residue measured after 2 hrs by western blot analysis; type: cell-based; details: Primary hepatocyte, filed as activator, dose 2.5-10 µM, DDE = dose-dependent effect
Hepatocyte [12] = assay: Inhibition of gluconeogenesis in C57BL/6J mouse primary hepatocytes assessed as inhibition of glucose production preincubated for 1.5 hrs followed by lactate and pyruvate addition; type: functional, cell-based; details: dose 2.5-10 µM, DDE = dose-dependent effect
[13] = target: Serine/threonine-protein kinase SIK1 (Mus musculus) (UniProt Q60670); assay: Activation of SIK1 in C57BL/6J mouse primary hepatocytes assessed as decrease in glucagon-stimulated intracellular cAMP accumulation by ELISA; type: cell-based; details: Primary hepatocyte, filed as activator, dose 2.5-10 µM, DDE = dose-dependent effect
[14] = target: Serine/threonine-protein kinase SIK1 (Mus musculus) (UniProt Q60670); assay: Activation of SIK1 in C57BL/6J mouse primary hepatocytes assessed as decrease in CREB phosphorylation at 2.5 to 10 uM incubated for 2 hrs by western blot analysis; type: cell-based; details: Primary hepatocyte, filed as activator, dose 2.5-10 µM, DDE = dose-dependent effect
[15] = target: Serine/threonine-protein kinase SIK1 (Mus musculus) (UniProt Q60670); assay: Activation of SIK1 in C57BL/6J mouse primary hepatocytes assessed as decrease in glucagon-stimulated CREB phosphorylation at 2.5 to 10 uM incubated for 2 hrs by western blot analysis; type: cell-based; details: Primary hepatocyte, filed as activator, dose 2.5-10 µM, DDE = dose-dependent effect
Mus musculus [16] = assay: Acute hypoglycemic activity in type 2 diabetic ob/ob mouse assessed as reduction in fasting blood glucose level at 100 mg/kg, po administered as single dose and measured for 10 hrs; type: functional, organism-based
Mus musculus [17] = assay: Anti-hyperglycemic activity in ob/ob mouse assessed as reduction in non-fasting blood glucose level at 100 mg/kg, po administered once daily and measured after 8 days relative to control; type: functional; details: 192 h, time 8 day
Mus musculus [18] = assay: Anti-hyperglycemic activity in ob/ob mouse assessed as reduction in fasting blood glucose level at 100 mg/kg, po administered once daily and measured after 4 days relative to control; type: functional; details: 96 h, time 4 day
Mus musculus [19] = assay: Anti-hyperglycemic activity in ob/ob mouse assessed as reduction in non-fasting blood glucose level at 100 mg/kg, po administered once daily and measured after 21 days relative to control; type: functional; details: 504 h, time 21 day
Mus musculus [20] = assay: Anti-hyperlipidemic activity in ob/ob mouse assessed as reduction in serum triglyceride level at 100 mg/kg, po administered once daily for 21 days; type: functional, organism-based; details: time 21.0 day
Mus musculus [21] = assay: Anti-hyperlipidemic activity in ob/ob mouse assessed as reduction in total cholesterol level in serum at 100 mg/kg, po administered once daily for 21 days; type: functional, organism-based; details: time 21.0 day
Mus musculus [22] = assay: In vivo activation of SIK1 in ob/ob mouse assessed as increase in SIK1 phosphorylation at Thr182 residue in liver at 100 mg/kg, po administered once daily for 21 days by western blot analysis; type: functional, organism-based; details: time 21.0 day
Mus musculus [23] = assay: In vivo activation of SIK1 in ob/ob mouse assessed as decrease in CREB phosphorylation in liver at 100 mg/kg, po administered once daily for 21 days by western blot analysis; type: functional, organism-based; details: time 21.0 day
[24] = Inhibition of gluconeogenesis in C57BL/6J mouse primary hepatocytes assessed as inhibition of glucagon-stimulated glucose production at 0.5 mM preincubated for 1.5 hrs followed by lactate and pyruvate addition and later stimulated with glucagon for 4 hrs; type: functional; details: Hepatocyte, 5.5 h

Sequence of Serine/threonine-protein kinase SIK1 (Mus musculus) (Q60670 whole entry): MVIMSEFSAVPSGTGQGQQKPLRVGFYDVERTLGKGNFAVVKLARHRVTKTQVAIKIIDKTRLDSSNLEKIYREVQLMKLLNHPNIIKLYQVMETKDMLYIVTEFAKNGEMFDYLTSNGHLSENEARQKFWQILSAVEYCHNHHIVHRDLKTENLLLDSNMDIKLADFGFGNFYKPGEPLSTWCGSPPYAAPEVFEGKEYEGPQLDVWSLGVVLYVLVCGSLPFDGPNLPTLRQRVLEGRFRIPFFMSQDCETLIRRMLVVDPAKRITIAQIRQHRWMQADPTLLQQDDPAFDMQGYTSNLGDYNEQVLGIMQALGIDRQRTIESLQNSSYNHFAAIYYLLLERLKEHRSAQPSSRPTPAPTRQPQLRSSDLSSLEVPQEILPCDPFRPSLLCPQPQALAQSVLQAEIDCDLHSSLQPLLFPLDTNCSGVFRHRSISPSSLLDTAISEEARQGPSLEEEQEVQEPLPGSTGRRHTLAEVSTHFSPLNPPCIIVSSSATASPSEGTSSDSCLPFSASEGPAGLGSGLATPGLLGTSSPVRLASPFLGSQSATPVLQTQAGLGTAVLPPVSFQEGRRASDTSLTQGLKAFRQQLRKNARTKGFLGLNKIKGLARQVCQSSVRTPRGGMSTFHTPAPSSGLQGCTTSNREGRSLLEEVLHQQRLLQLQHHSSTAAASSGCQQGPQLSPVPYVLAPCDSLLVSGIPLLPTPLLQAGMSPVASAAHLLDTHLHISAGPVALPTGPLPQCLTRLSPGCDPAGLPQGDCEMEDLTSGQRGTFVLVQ

Work on `COC(=O)[C@@]12CCCC3([C@H](OCCO)OC1)[C@H]2CC[C@H]1[C@@H](C)c2ccoc2C[C@@H]13` yielded an inhibition at 5 µM [1] of 79.6%, an inhibition at 2.5 µM [2] of 53.4% and a viability at 24 h, 20 µM [3] of 86.1%. The inhibition in vivo at 100 mg/kg (Mus musculus [4]) was 41.2%, the inhibition (Hepatocyte [5]) was “Dde” and the inhibition at 10 µM [6] was 91.4%. The viability at 24 h, 10 µM [7] was 98.4%, the viability at 24 h, 50 µM [8] was 90.1% and the viability at 24 h, 100 µM [9] was 11.1%. For the same compound, the viability at 24 h, 200 µM [10] was 9.2%, the Activity [11] was “Dde” and the inhibition (Hepatocyte [12]) was “Dde”. The Activity [13] was “Dde”, the Activity [14] was “Dde” and the Activity [15] was “Dde”. The Activity (Mus musculus [16]) was “Active”, the inhibition in vivo at 100 mg/kg (Mus musculus [17]) was 41.1% and the inhibition in vivo at 100 mg/kg (Mus musculus [18]) was 32.3%. The inhibition in vivo at 100 mg/kg (Mus musculus [19]) was 37.6%, the Activity (Mus musculus [20]) was “Active” and the Activity (Mus musculus [21]) was “Active”. For the same compound, the Activity (Mus musculus [22]) was “Active” and the Activity (Mus musculus [23]) was “Active”.
Compound `CN(C)C(=N)NC(=N)N` [METFORMIN] has an inhibition at 500 µM [24] of 51.5%.
